Reference: ChEMBL document CHEMBL3885881, “DrugMatrix”

Species on record: Rattus norvegicus
Experiment: DrugMatrix - Regimen: Daily Repeat
Format: toxicity, organism-based, Sprague-Dawley
Set-up: regimen Daily Repeat, gender Male, age 6-8 weeks
Details: in vivo, po, route oral GAVAGE, […]; for ABSOLUTE BASOPHIL / ABSOLUTE EOSINOPHIL / ABSOLUTE LYMPHOCYTE / ABSOLUTE MONOCYTE / ABSOLUTE SEGMENTED NEUTROPHIL / BASOPHIL / EOSINOPHIL / ERYTHROCYTE COUNT / HEMATOCRIT / HEMOGLOBIN / LEUKOCYTE COUNT / LYMPHOCYTE / MEAN CORPUSCULAR HEMOGLOBIN / MEAN CORPUSCULAR HEMOGLOBIN CONCENTRATION / MEAN CORPUSCULAR VOLUME / MONOCYTE / NEUTROPHIL / NUCLEATED RED BLOOD CELLS / PLATELET COUNT: tissue Blood; for ALANINE AMINOTRANSFERASE / ALBUMIN / ALKALINE PHOSPHATASE / ASPARTATE AMINOTRANSFERASE / BLOOD UREA NITROGEN / CARBON DIOXIDE / CHLORIDE / CHOLESTEROL / CREATINE PHOSPHOKINASE / CREATININE / GLUCOSE / LACTATE DEHYDROGENASE / LIPASE / PHOSPHORUS / POTASSIUM / SODIUM / TOTAL BILIRUBIN / TOTAL PROTEIN / URIC ACID: tissue Plasma
[1] = 4 mg/kg, 120 h, dose level Low, time 5 day
[2] = 63 mg/kg, 72 h, dose level High, time 3 day
[3] = 63 mg/kg, 120 h, dose level High, time 5 day

For `CSc1ccc2c(c1)N(CCC1CCCCN1C)c1ccccc1S2` (centres undefined) [THIORIDAZINE], the “ABSOLUTE BASOPHIL” value [1] was 0 CELLS/uL, the “ABSOLUTE EOSINOPHIL” value [1] was 185.33 CELLS/uL and the “ABSOLUTE LYMPHOCYTE” value [1] was 12393.33 CELLS/uL. The “ABSOLUTE MONOCYTE” value [1] was 143.33 CELLS/uL, the “ABSOLUTE SEGMENTED NEUTROPHIL” value [1] was 1078 CELLS/uL and the BASOPHIL [1] was 0%. For the same compound, the EOSINOPHIL [1] was 1.33%, the “ERYTHROCYTE COUNT” value [1] was 6.21 x10E6/uL and the HEMATOCRIT [1] was 39.13%. For the same compound, the HEMOGLOBIN [1] was 14.43 G/DL, the “LEUKOCYTE COUNT” value [1] was 13.8 x10E3/uL and the LYMPHOCYTE [1] was 90%. For the same compound, the “MEAN CORPUSCULAR HEMOGLOBIN” value [1] was 23.27 pg, the “MEAN CORPUSCULAR HEMOGLOBIN CONCENTRATION” value [1] was 36.87 G/DL and the “MEAN CORPUSCULAR VOLUME” value [1] was 63.13 fL. The MONOCYTE [1] was 1%, the NEUTROPHIL [1] was 7.67% and the “NUCLEATED RED BLOOD CELLS” value [1] was 0.33 /100WBC. The “PLATELET COUNT” value [1] was 1375 x10E3/uL, the “ALANINE AMINOTRANSFERASE” value [1] was 42.67 u/L and the ALBUMIN [1] was 4.4 G/DL. For the same compound, the “ALKALINE PHOSPHATASE” value [1] was 474.67 u/L, the “ASPARTATE AMINOTRANSFERASE” value [1] was 94.67 u/L and the “BLOOD UREA NITROGEN” value [1] was 17.67 mg/dL. The “CARBON DIOXIDE” value [1] was 24.33 mmol/L, the CHLORIDE [1] was 103.67 MEQ/L and the CHOLESTEROL [1] was 48.67 mg/dL. The “CREATINE PHOSPHOKINASE” value [1] was 499.33 u/L, the CREATININE [1] was 0.19 mg/dL and the GLUCOSE [1] was 188 mg/dL. For the same compound, the “LACTATE DEHYDROGENASE” value [1] was 405 u/L, the LIPASE [1] was 9.33 u/L and the PHOSPHORUS [1] was 12.77 mg/dL. The POTASSIUM [1] was 5.85 MEQ/L, the SODIUM [1] was 141.6 MEQ/L and the “TOTAL BILIRUBIN” value [1] was 0.1 mg/dL. For the same compound, the “TOTAL PROTEIN” value [1] was 6.63 G/DL, the “URIC ACID” value [1] was 2.07 mg/dL and the “ABSOLUTE BASOPHIL” value [2] was 0 CELLS/uL. The “ABSOLUTE EOSINOPHIL” value [2] was 50 CELLS/uL, the “ABSOLUTE LYMPHOCYTE” value [2] was 8382 CELLS/uL and the “ABSOLUTE MONOCYTE” value [2] was 59.67 CELLS/uL. The “ABSOLUTE SEGMENTED NEUTROPHIL” value [2] was 575 CELLS/uL, the BASOPHIL [2] was 0% and the EOSINOPHIL [2] was 0.67%. For the same compound, the “ERYTHROCYTE COUNT” value [2] was 5.2 x10E6/uL, the HEMATOCRIT [2] was 32.73% and the HEMOGLOBIN [2] was 12.73 G/DL. For the same compound, the “LEUKOCYTE COUNT” value [2] was 9.07 x10E3/uL, the LYMPHOCYTE [2] was 92.33% and the “MEAN CORPUSCULAR HEMOGLOBIN” value [2] was 24.53 pg. For the same compound, the “MEAN CORPUSCULAR HEMOGLOBIN CONCENTRATION” value [2] was 38.9 G/DL, the “MEAN CORPUSCULAR VOLUME” value [2] was 63.07 fL and the MONOCYTE [2] was 0.67%. For the same compound, the NEUTROPHIL [2] was 6.33%, the “NUCLEATED RED BLOOD CELLS” value [2] was 0 /100WBC and the “PLATELET COUNT” value [2] was 1257.67 x10E3/uL. The “ALANINE AMINOTRANSFERASE” value [2] was 49.33 u/L, the ALBUMIN [2] was 4.2 G/DL and the “ALKALINE PHOSPHATASE” value [2] was 379.33 u/L. The “ASPARTATE AMINOTRANSFERASE” value [2] was 77.67 u/L, the “BLOOD UREA NITROGEN” value [2] was 16 mg/dL and the “CARBON DIOXIDE” value [2] was 28.67 mmol/L. The CHLORIDE [2] was 104.67 MEQ/L, the CHOLESTEROL [2] was 74.33 mg/dL and the “CREATINE PHOSPHOKINASE” value [2] was 301.33 u/L. For the same compound, the CREATININE [2] was 0.2 mg/dL, the GLUCOSE [2] was 164 mg/dL and the “LACTATE DEHYDROGENASE” value [2] was 99.33 u/L. For the same compound, the LIPASE [2] was 9 u/L, the PHOSPHORUS [2] was 10.9 mg/dL and the POTASSIUM [2] was 5.63 MEQ/L. The SODIUM [2] was 146.33 MEQ/L, the “TOTAL BILIRUBIN” value [2] was 0.17 mg/dL and the “TOTAL PROTEIN” value [2] was 6 G/DL. The “URIC ACID” value [2] was 1.13 mg/dL, the “ABSOLUTE BASOPHIL” value [3] was 0 CELLS/uL and the “ABSOLUTE EOSINOPHIL” value [3] was 0 CELLS/uL. For the same compound, the “ABSOLUTE LYMPHOCYTE” value [3] was 12825 CELLS/uL, the “ABSOLUTE MONOCYTE” value [3] was 117.67 CELLS/uL and the “ABSOLUTE SEGMENTED NEUTROPHIL” value [3] was 1290.67 CELLS/uL. The BASOPHIL [3] was 0%, the EOSINOPHIL [3] was 0% and the “ERYTHROCYTE COUNT” value [3] was 5.78 x10E6/uL. The HEMATOCRIT [3] was 35.33%, the HEMOGLOBIN [3] was 13.37 G/DL and the “LEUKOCYTE COUNT” value [3] was 14.23 x10E3/uL. The LYMPHOCYTE [3] was 90.33%, the “MEAN CORPUSCULAR HEMOGLOBIN” value [3] was 23.13 pg and the “MEAN CORPUSCULAR HEMOGLOBIN CONCENTRATION” value [3] was 37.87 G/DL. For the same compound, the “MEAN CORPUSCULAR VOLUME” value [3] was 61.23 fL, the MONOCYTE [3] was 1% and the NEUTROPHIL [3] was 8.67%. The “NUCLEATED RED BLOOD CELLS” value [3] was 0.33 /100WBC, the “PLATELET COUNT” value [3] was 1309.67 x10E3/uL and the “ALANINE AMINOTRANSFERASE” value [3] was 52.33 u/L. The ALBUMIN [3] was 4 G/DL, the “ALKALINE PHOSPHATASE” value [3] was 520 u/L and the “ASPARTATE AMINOTRANSFERASE” value [3] was 97.33 u/L. For the same compound, the “BLOOD UREA NITROGEN” value [3] was 13.67 mg/dL, the “CARBON DIOXIDE” value [3] was 23.33 mmol/L and the CHLORIDE [3] was 106.33 MEQ/L. For the same compound, the CHOLESTEROL [3] was 55 mg/dL, the “CREATINE PHOSPHOKINASE” value [3] was 913 u/L and the CREATININE [3] was 0.19 mg/dL. The GLUCOSE [3] was 175.33 mg/dL, the “LACTATE DEHYDROGENASE” value [3] was 124.33 u/L and the LIPASE [3] was 8.67 u/L. The PHOSPHORUS [3] was 11.6 mg/dL, the POTASSIUM [3] was 5.22 MEQ/L and the SODIUM [3] was 144.53 MEQ/L. The “TOTAL BILIRUBIN” value [3] was 0.17 mg/dL, the “TOTAL PROTEIN” value [3] was 5.87 G/DL and the “URIC ACID” value [3] was 1.37 mg/dL.
